Test results published in PubChem BioAssay AID540269 (Sanford-Burnham Center for Chemical Genomics, 2011).
The source made the active and inactive calls. The rule behind the calls is not given here.

target: glucose-6-phosphate dehydrogenase-6-phosphogluconolactonase (Plasmodium falciparum 3D7); experiment: inhibition of P. falciparum G6PD activity – biochemical, kinetic NADPH detection, orthogonal assay, dose response (AID 540269); details: purified PfG6PD-6PGL

Row | Compound | IC50
1 | O=C1NC(=S)NC(=O)C1=Cc1ccc(Br)s1 | > 80 µM (inactive)
2 | O=C(Sc1n[nH]c(=O)[nH]c1=O)c1ccccc1 | 22.8 µM
3 | COc1ccc(CCn2c(NN=C3CCCCC3)nc3c2c(=O)[nH]c(=O)n3C)cc1 | > 80 µM (inactive)
4 | Cn1sc2ccccc2c1=O | 39.5 µM
5 | CCc1nnc(NC(=O)c2ccc(Cl)nc2)s1 | > 80 µM (inactive)
6 | C/C(Cn1nnc([N+](=O)[O-])n1)=N\NC(=O)c1ccccc1O | 46.3 µM
7 | Cc1nc(COC(=O)c2cc(O)c3ccccc3c2O)cs1 | > 80 µM (inactive)
8 | [O-][N+](=Cc1ccccc1)c1ccc(Cl)cc1 | > 80 µM (inactive)
9 | O=S(=O)(Nc1c(O)ccc2ccccc12)c1ccccc1 | 9.3 µM
10 | COc1ccc(C(=O)Nc2sc3c(c2C(=O)O)CC(C)(C)OC3)cc1 | 40.6 µM
11 | O=c1c2cc([N+](=O)[O-])ccc2sn1-c1ccccc1 | 15.9 µM
12 | C/C(Cn1nnc([N+](=O)[O-])n1)=N\NC(=O)c1ccc(O)cc1 | > 80 µM (inactive)
13 | COc1ccc(C(=O)Nc2cc(Cl)ccc2C(=O)O)cc1 | 17.7 µM
14 | COc1cc(CN2CCN(CCCc3ccccc3)C(CCO)C2)cc(OC)c1O (stereo not given) | > 80 µM (inactive)
15 | CCSc1nc2cc(S(=O)(=O)N3CCOCC3)ccc2o1 | > 80 µM (inactive)
16 | COc1ccc2c(c1)c(=Cc1ccc(N(C)C)cc1)c1cc(-c3ccccc3)[n+](C)n12 | 64.4 µM
17 | CC(C)c1nnc(NC(=O)c2sc3ccccc3c2Cl)s1 | 35.5 µM
18 | Cc1cccc(C(=O)Nc2nnc(S(=O)(=O)N3CCCCCC3)s2)c1 | 16.9 µM
19 | CCOc1ccccc1NC(=O)CCCc1nc2ccccc2c(=O)[nH]1 | > 80 µM (inactive)
20 | COc1ccc2nc3cc(Cl)ccc3c(Nc3ccc(O)c(CN4CCN(C)CC4)c3)c2c1 | > 80 µM (inactive)
21 | C=CCc1ccccc1OCC(=O)N/N=C/c1ccccc1OCC | > 80 µM (inactive)
22 | CC(SCC(=O)Nc1ccccc1)c1nc2ccccc2c(=O)[nH]1 (stereo not given) | > 80 µM (inactive)

Row | Compound | IC50
23 | Cc1ccc(C(=O)NCC(=O)NCC(=O)OCC(=O)c2ccc([N+](=O)[O-])cc2)cc1 | > 80 µM (inactive)
24 | O=c1c2ccccc2sn1-c1ccc(S(=O)(=O)N2CCCCC2)cc1 | > 80 µM (inactive)
25 | c1ccc(-c2nc(N3CCOCC3)s[n+]2-c2ccccc2)cc1 | > 80 µM (inactive)
26 | Cc1ccc(-c2nc(N)s[n+]2-c2ccccc2)cc1 | > 80 µM (inactive)
27 | CCOc1ccc(N(CC(=O)N/N=C/c2cc([N+](=O)[O-])ccc2Cl)S(C)(=O)=O)cc1 | > 80 µM (inactive)
28 | Cc1c(C(=O)N(Cc2ccccc2Cl)C2CCS(=O)(=O)C2)oc2ccccc12 (stereo not given) | > 80 µM (inactive)
29 | COc1cc(-c2cc(=O)c3c(O)c(OC)c(OC)c(O)c3o2)ccc1O | 40.3 µM
30 | CC1(OC(=O)C2CCCC2)C(=O)C=C2C=C(c3ccsc3)N(Cc3ccc4c(c3)OCO4)C=C2C1=O (stereo not given) | > 80 µM (inactive)
31 | OCCN1CCN(C(=S)c2ccc(-c3ccccc3)cc2)CC1 | > 80 µM (inactive)
32 | O=C(CNC(=O)c1ccco1)OCC(=O)c1ccc([N+](=O)[O-])cc1 | 50.9 µM
33 | NCCNc1ccc(C(=O)N2c3ccccc3Sc3ccccc32)cc1[N+](=O)[O-] | 23.5 µM
34 | Cc1nnc(N/N=C\c2ccc(-c3cccc(C(=O)O)c3)o2)n1N | 40.1 µM
35 | N#Cc1c(C#N)c(SSc2c(C#N)c(C#N)c(N)n2-c2ccccc2)n(-c2ccccc2)c1N | > 80 µM (inactive)
36 | Cc1ccc(-c2csc(NC(=O)c3ccccc3F)c2C(=O)O)cc1 | 53.7 µM
37 | CCN1CCN(C(=S)c2ccc(O)cc2)CC1 | > 80 µM (inactive)
38 | COc1cc(SSc2cc(OC)cc([N+](=O)[O-])c2N)c(N)c([N+](=O)[O-])c1 | 44.6 µM
39 | Cc1ccc(/C=C/C(=O)NCc2ccc(S(N)(=O)=O)cc2)o1 | > 80 µM (inactive)
40 | C=CCN=c1scc(-c2ccco2)n1/N=C/c1ccc(O)c(O)c1O | 58.3 µM
41 | COc1ccc(-c2cn3cc(C)ccc3n2)cc1Br | > 80 µM (inactive)
42 | CCCCCCCCSC1=CC(=O)C(OC)=C(OC)C1=O | > 80 µM (inactive)
43 | COc1cc(CNc2ccc(N3CCCC3)cc2)cc(Cl)c1OC | > 80 µM (inactive)
44 | COC1=C(OC)C(=O)C(Sc2ccc3ccccc3c2)=CC1=O | 23.3 µM

Row | Compound | IC50
45 | CCC(C)N(CCNC(=O)c1ccc2c(c1)NC(=O)c1ccccc1S2)C1CCCCC1 (stereo not given) | 6.35 µM
46 | Cc1ccc(NC(=O)c2cc(N3C(=O)C=CC3=O)ccc2Cl)cc1C | 43.5 µM
47 | CCCCCCCCn1sccc1=O | 66.4 µM
48 | CN(C)c1cccc2c1c(NC(=O)c1ccc(F)cc1)nn2C | > 80 µM (inactive)
49 | CS(=O)(=O)c1ccc(N)c(SSc2cc(S(C)(=O)=O)ccc2N)c1 | 15.2 µM
50 | CCN(CC)c1ccc(NC(=O)c2ccccc2Br)cc1S(=O)(=O)Nc1ccccc1OC | 59.2 µM
51 | Cc1cccc(C(=O)Nc2sc3c(c2C(=O)O)CCCC3)c1 | 32.9 µM
52 | OCCN1CCN(C(=S)c2ccc(Cl)c(Cl)c2)CC1 | > 80 µM (inactive)
53 | O=S(=O)(Nc1ccc(Cl)cc1)c1ccc(N2CCOCC2)c(NC(=S)NCCN2CCOCC2)c1 | > 80 µM (inactive)
54 | Cc1cc(C)c2c(=O)n(CC(=O)Nc3cccc(F)c3)sc2n1 | 41.6 µM
55 | COc1cc(NCc2ccccc2)c2ncn(Cc3ccccc3)c2c1 | > 80 µM (inactive)
56 | Cc1ccc(-n2c(N)c(C(=O)N3CCN(C)CC3)sc2=S)cc1 | 70.6 µM
57 | Cc1cc(C(=O)O)ccc1-n1c(C)cc(C=C2C(=O)c3ccccc3C2=O)c1C | > 80 µM (inactive)
58 | Nc1ccc(S(=O)(=O)c2cc(O)c3ccccc3c2O)cc1 | > 80 µM (inactive)
59 | Cc1nc2ccccn2c1-c1ccnn1S(=O)(=O)c1ccc(F)cc1 | > 80 µM (inactive)
60 | CC(C)(C)c1ccc(O)c(O)c1 | 48.6 µM
61 | Cc1ccc(NC(=O)Cn2sc3ccccc3c2=O)cc1 | 14.4 µM
62 | c1ccc(SSc2ccccn2)nc1 | 64.1 µM
63 | Cc1[nH]c2ccccc2c1/C=N/Nc1nncn1N | > 80 µM (inactive)
64 | CN(C)C=Nc1ccc2nc3c(cc2c1)[nH]c1ccccc13 | > 80 µM (inactive)
65 | O=C(CCc1ccc(O)c(O)c1)N/N=C/c1cc2c(cc1[N+](=O)[O-])OCO2 | 16.6 µM
66 | COc1ccc(Cl)cc1NC(=O)c1cccc([N+](=O)[O-])c1O | > 80 µM (inactive)

Row | Compound | IC50
67 | COc1cccc(/C=N/NC(=O)CSc2cccc3cccnc23)c1 | 21.7 µM
68 | C=CCSc1nc2sc3c(c2c(=O)n1CC)CCc1ccccc1-3 | > 80 µM (inactive)
69 | CCOC(=O)c1c2ccc(OCC(=O)NN)cc2n2ccccc12 | 9.4 µM
70 | CCC(C)c1ccccc1OCCn1ccnc1 (stereo not given) | > 80 µM (inactive)
71 | O=C(CBr)c1ccc([N+](=O)[O-])c(CS(=O)(=O)c2ccc(Cl)cc2)c1 | > 80 µM (inactive)
72 | Clc1ccc2nc(-c3ccc(Br)s3)cn2c1 | > 80 µM (inactive)
73 | CCN(CC)C(=S)SSC(=S)N(CC)CC | > 80 µM (inactive)
74 | CC1COCC(C)N1C1=C(Cl)C(=O)c2ccccc2C1=O (stereo not given) | 42.4 µM
75 | CC(=O)Nc1ccc2c(=O)n(-c3ccccc3)sc2c1 | 15.6 µM
76 | Cc1[nH]c(=S)c(C#N)c(C)c1CCC#N | > 80 µM (inactive)
77 | O=C1C=CC(=O)N1c1ccc2c(c1)C(NC(=O)C(F)(F)F)c1ccccc1-2 (stereo not given) | > 80 µM (inactive)
78 | Cc1ccsc1/C=N\NC(=O)CC(=O)NCc1ccccc1 | > 80 µM (inactive)
79 | Cc1cc(O)c(C(C)C)cc1N=Cc1ccc(N(C)C)cc1 | > 80 µM (inactive)
80 | Cc1cnc(C=NNC(N)=S)c2cccc(N)c12 | > 80 µM (inactive)
81 | O=C1NC(=O)C(=Cc2ccc(-c3ccccc3[N+](=O)[O-])o2)C(=O)N1 | 69.9 µM
82 | Cc1cc(C)c(S(=O)(=O)/N=C2/C=C(SCC(=O)O)C(=O)c3ccccc32)cc1C | > 80 µM (inactive)
83 | O=C(O)c1ccc(-n2c(-c3cc(-c4ccco4)[nH]n3)n[nH]c2=S)cc1 | 40.8 µM
84 | CCc1cc(-c2n[nH]c(C)c2-c2nc3ccccc3n2C)c(O)cc1O | 9.3 µM
85 | O=[N+]([O-])c1ccc2c(c1)-c1ccccc1C2O (stereo not given) | 42.9 µM
86 | O=C1NC(=O)N(c2ccccc2)C(=O)/C1=C/c1ccc([N+](=O)[O-])s1 | > 80 µM (inactive)
87 | Cc1ccc(NC(=O)c2ccc(Cl)c(N3C(=O)C=CC3=O)c2)cc1 | 28.2 µM
88 | Cc1ccc(NC2=C(NC(=O)c3ccccc3)C(=O)c3ccccc3C2=O)cc1Cl | > 80 µM (inactive)

Row | Compound | IC50
89 | Cc1cc(C)c(NC(=S)NCC2CCN(C(C)c3ccccc3)C2)c(C)c1 (stereo not given) | > 80 µM (inactive)
90 | O=C(Nc1nnc(S(=O)(=O)N2CCCCCC2)s1)c1cccc(Br)c1 | 14.1 µM
91 | O=C(O)c1cccc(N2C(=O)C=CC2=O)c1 | 55.2 µM
92 | COc1cc(/C=C/C(=O)c2ccc([N+](=O)[O-])o2)ccc1O | > 80 µM (inactive)
93 | Cc1ccc(/C=C2\C(=O)NC(=S)N(c3ccccc3F)C2=O)s1 | > 80 µM (inactive)
94 | O=C(Nc1nnc(S(=O)(=O)N2CCOCC2)s1)c1ccc(F)cc1 | 56.9 µM
95 | O=C(O)CSc1cc(NS(=O)(=O)c2ccc(Cl)cc2)c2ccccc2c1O | 46.3 µM
96 | Cc1cc(C)nc(SSc2nc(C)cc(C)n2)n1 | 68 µM
97 | Cc1ccc(-c2nn(C)c(=O)c3ccccc23)cc1CNC(=O)/C=C/c1ccccc1 | 68.6 µM
98 | O=c1c2ccccc2sn1-c1ccc(S(=O)(=O)N2CCCC2)cc1 | 28.4 µM
99 | Cc1ccccc1-n1c(-c2ccc3ccccc3n2)n[nH]c1=S | 51.3 µM
100 | CCOC(=O)C1CCCN(C(=O)Cn2sc3nc(C)cc(C)c3c2=O)C1 (stereo not given) | 50.7 µM
101 | CCNc1ccccc1CP(=O)(c1ccccc1)c1ccccc1O (stereo not given) | > 80 µM (inactive)
102 | O=c1c2ccc(F)cc2sn1-c1ccccc1 | 15.4 µM
103 | CCOc1cc(CNc2ccc(N3CCCC3)cc2)cc(Cl)c1OC | > 80 µM (inactive)
104 | O=c1c2cc(F)ccc2sn1-c1ccc(F)cc1 | 23.4 µM
105 | Cc1ccc(-c2csc(NC(=O)c3ccc(Br)cc3)c2C(=O)O)cc1 | 29.7 µM
106 | CC1=NOC(=O)/C1=C\c1ccc(-c2ccccc2Br)o1 | > 80 µM (inactive)
107 | c1cncc(CNc2ccc3c(c2)OCO3)c1 | > 80 µM (inactive)
108 | CN1CCc2cccc3c2[C@H]1Cc1ccc(O)c(O)c1-3 | > 80 µM (inactive)
109 | CN=c1nc(-c2ccccc2)n(-c2ccccc2)s1 | 20.6 µM
110 | Cc1cc(C)c2c(=O)n(CC(=O)Nc3cccc(Cl)c3C)sc2n1 | 49.6 µM
